How the values were obtained:
Type in all cases: in vivo
maize = assay: Crop safety test (pot culture method); conditions: for inhibition ratio, Maize (crop safety): plants with about 4-5 leaves, investigated 15 days later
Description: (§1) This test example is for describing crop safety of the compound with a structure shown in Formula (1). Crop safety test method (pot culture method): The test targets are wheat and maize. Take flowerpots with an inner diameter of 12 cm, put composite soil (vegetable garden soil:seedling matrix=1:2, v/v) into them till ¾ of flowerpot height, directly sow the crop seeds (budding rate>85%), cover them with 0.2 cm thick soil, and keep the plants for future use when they grow to have about 4-5 leaves. Each compound is dissolved in N,N-dimethylformamide at doses of 75 g/ha or 150 g/ha and diluted with distilled water containing 0.1% tween-80 emulsifier to form 0.1 g/L (75 g/ha) solution and 0.2 g/L (150 g/ha) solution respectively. The solutions are sprayed through an automatic spray tower. After the solutions on weed leaves are dried in the air, the flowerpots are moved into a greenhouse for cultivation. The result is investigated 15 days later.

wheat = assay: Crop safety test (pot culture method); conditions: plants with about 4-5 leaves, investigated 15 days later
Description: as §1

eclipta prostrata = assay: Herbicidal activity, pot culture method (primary and secondary screening test); conditions: sprayed at 3-leaf stage; for inhibition ratio, Eclipta prostrata: investigated 15 days later; for herbicidal activity inhibition ratio (%), Eclipta prostrata: primary screening, pot culture, 150 g/ha, result 15 days later
Method in brief: (§2)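 Percent growth inhibition of weeds sprayed at the 3-leaf stage, 150 g/ha in the primary screen and a lower dose in the secondary screen, scored 15 days after treatment under greenhouse conditions.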

setaria viridis = assay: as above; conditions: sprayed at 3-leaf stage; for inhibition ratio, Setaria viridis: investigated 15 days later; for herbicidal activity inhibition ratio (%), Setaria viridis: primary screening, pot culture, 150 g/ha, result 15 days later
Method in brief: as §2

digitaria sanguinalis = assay: as above; conditions: sprayed at 3-leaf stage; for inhibition ratio, Digitaria sanguinalis: investigated 15 days later; for herbicidal activity inhibition ratio (%), Digitaria sanguinalis: primary screening, pot culture, 150 g/ha, result 15 days later
Method in brief: as §2

abutilon theophrasti = assay: as above; conditions: sprayed at 3-leaf stage; for inhibition ratio, Abutilon theophrasti: investigated 15 days later; for herbicidal activity inhibition ratio (%), Abutilon theophrasti: primary screening, pot culture, 150 g/ha, result 15 days later
Method in brief: as §2

amaranthus retroflexus = assay: as above; conditions: sprayed at 3-leaf stage; for inhibition ratio, Amaranthus retroflexus: investigated 15 days later; for herbicidal activity inhibition ratio (%), Amaranthus retroflexus: primary screening, pot culture, 150 g/ha, result 15 days later
Method in brief: as §2

echinochloa crusgalli = assay: as above; conditions: sprayed at 3-leaf stage; for inhibition ratio, Echinochloa crusgalli: investigated 15 days later; for herbicidal activity inhibition ratio (%), Echinochloa crusgalli: primary screening, pot culture, 150 g/ha, result 15 days later
Method in brief: as §2

Compound | inhibition ratio, Maize (crop safety) (maize; dose 75 g/ha) | inhibition ratio, Maize (crop safety) (maize; dose 150 g/ha) | inhibition ratio, Wheat (crop safety) (wheat; dose 75 g/ha) | inhibition ratio, Wheat (crop safety) (wheat; dose 150 g/ha) | inhibition ratio, Eclipta prostrata (eclipta prostrata; dose 37.5 g/ha) | inhibition ratio, Eclipta prostrata (eclipta prostrata; dose 75 g/ha) | herbicidal activity inhibition ratio (%), Eclipta prostrata (eclipta prostrata) | inhibition ratio, Setaria viridis (setaria viridis; dose 37.5 g/ha) | inhibition ratio, Setaria viridis (setaria viridis; dose 75 g/ha) | herbicidal activity inhibition ratio (%), Setaria viridis (setaria viridis) | inhibition ratio, Digitaria sanguinalis (digitaria sanguinalis; dose 37.5 g/ha) | inhibition ratio, Digitaria sanguinalis (digitaria sanguinalis; dose 75 g/ha) | herbicidal activity inhibition ratio (%), Digitaria sanguinalis (digitaria sanguinalis) | inhibition ratio, Abutilon theophrasti (abutilon theophrasti; dose 37.5 g/ha) | inhibition ratio, Abutilon theophrasti (abutilon theophrasti; dose 75 g/ha) | herbicidal activity inhibition ratio (%), Abutilon theophrasti (abutilon theophrasti) | inhibition ratio, Amaranthus retroflexus (amaranthus retroflexus; dose 37.5 g/ha) | inhibition ratio, Amaranthus retroflexus (amaranthus retroflexus; dose 75 g/ha) | herbicidal activity inhibition ratio (%), Amaranthus retroflexus (amaranthus retroflexus) | inhibition ratio, Echinochloa crusgalli (echinochloa crusgalli; dose 37.5 g/ha) | other results
CCc1ccccc1-n1c(=O)c2cc(C(=O)C3=C(O)CCCC3=O)ccc2n(C)c1=O [Compound 47] | 0% | 0% | 0% | 0% | 20% | 30% | 85% | 88% | 90% | 83% | 80% | 85% | 95% | 60% | 90% | 100% | 90% | 95% | 100% | 80% | safety to maize fields (in words) (maize; dose 150 g/ha): highly safe; inhibition ratio, Echinochloa crusgalli (echinochloa crusgalli; dose 75 g/ha): 88%; herbicidal activity inhibition ratio (%), Echinochloa crusgalli (echinochloa crusgalli): 85%
CCn1c(=O)n(-c2ccccc2C)c(=O)c2cc(C(=O)C3=C(O)CC(C)CC3=O)ccc21 (stereo not shown) [Compound 70] | 0% | 15% | 0% | 10% | 60% | 78% | 100% | 83% | 93% | 100% | 80% | 75% | 90% | 50% | 73% | 100% | 50% | 70% | 98% | 40% | inhibition ratio, Echinochloa crusgalli (echinochloa crusgalli; dose 75 g/ha): 55%; herbicidal activity inhibition ratio (%), Echinochloa crusgalli (echinochloa crusgalli): 100%
Cn1c(=O)n(-c2ccccc2Cl)c(=O)c2cc(C(=O)C3=C(O)CCCC3=O)ccc21 [Compound 5] | 0% | 15% | 0% | 0% | 30% | 40% | 80% | 60% | 90% | 100% | 40% | 90% | 100% | 60% | 70% | 85% | 60% | 75% | 80% | 60% | inhibition ratio, Echinochloa crusgalli (echinochloa crusgalli; dose 75 g/ha): 90%; herbicidal activity inhibition ratio (%), Echinochloa crusgalli (echinochloa crusgalli): 80%
